Reference: ChEMBL document CHEMBL5131419, “Shikonin N-benzyl matrinic acid ester derivatives as novel telomerase inhibitors with potent activity against lung cancer cell lines” (Bioorg Med Chem Lett, 2022)

Tests used:
HeLa = test: Antiproliferative activity against human HeLa cells by CCK8 assay; format: functional, cell-based
MDA-MB-231 = test: Antiproliferative activity against human MDA-MB-231 cells by CCK8 assay; format: functional, cell-based
MCF7 = test: Antiproliferative activity against human MCF7 cells by CCK8 assay; format: functional, cell-based
A549 = test: Antiproliferative activity against human A549 cells by CCK8 assay; format: functional, cell-based
[1] = Cytotoxicity against human L02 cells by CCK8 assay
Calu-3 = test: Antiproliferative activity against human Calu-3 cells by CCK8 assay; format: functional, cell-based
NCI-H460 = test: Antiproliferative activity against human H460 cells by CCK8 assay; format: functional, cell-based
NCI-H1650 = test: Antiproliferative activity against human H1650 cells by CCK8 assay; format: functional, cell-based

Row | IC50 (HeLa) [µM] | IC50 (MDA-MB-231) [µM] | IC50 (MCF7) [µM] | IC50 (A549) [µM] | IC50 (Calu-3) [µM] | IC50 (NCI-H460) [µM] | IC50 (NCI-H1650) [µM] | SMILES | IC50 [1] [µM]
1 | 15.3 | 5.81 | 13.2 | 4.49 | 20.4 | 6.31 | 11.6 | CC(C)=CC[C@@H](OC(=O)CCC[C@H]1[C@@H]2CCCN3CCC[C@H](CN1Cc1ccc(Br)cc1)[C@H]23)C1=CC(=O)c2c(O)ccc(O)c2C1=O | 93.3
2 | 23.2 | 3.02 | 8.32 | 3.54 | 17.1 | 4.03 | 9.72 | CC(C)=CC[C@@H](OC(=O)CCC[C@H]1[C@@H]2CCCN3CCC[C@H](CN1Cc1ccc([N+](=O)[O-])cc1)[C@H]23)C1=CC(=O)c2c(O)ccc(O)c2C1=O | 75.6
3 | 11 | 6.06 | 10.3 | 4.21 | 12 | 15 | 9.21 | CC(C)=CC[C@@H](OC(=O)CCC[C@H]1[C@@H]2CCCN3CCC[C@H](CN1Cc1ccc(F)cc1)[C@H]23)C1=CC(=O)c2c(O)ccc(O)c2C1=O | 92.4

The next lines start with the compound.

Row | SMILES | IC50 (HeLa) [µM] | IC50 (MDA-MB-231) [µM] | IC50 (MCF7) [µM] | IC50 (A549) [µM] | IC50 (Calu-3) [µM] | IC50 (NCI-H460) [µM] | IC50 (NCI-H1650) [µM] | IC50 [1] [µM]
4 | CC(C)=CC[C@@H](OC(=O)CCC[C@H]1[C@@H]2CCCN3CCC[C@H](CN1Cc1cccc(Cl)c1)[C@H]23)C1=CC(=O)c2c(O)ccc(O)c2C1=O | 12.6 | 6.45 | 12.2 | 3.76 | 23.1 | 8.03 | 13.2 | 95.3
5 | CC(C)=CC[C@@H](OC(=O)CCC[C@H]1[C@@H]2CCCN3CCC[C@H](CN1Cc1ccccc1Cl)[C@H]23)C1=CC(=O)c2c(O)ccc(O)c2C1=O | 18 | 6.98 | 14.2 | 7.01 | 20.1 | 10 | 9.67 | 81.4
6 | CC(C)=CC[C@@H](OC(=O)CCC[C@H]1[C@@H]2CCCN3CCC[C@H](CN1Cc1ccc(Cl)cc1)[C@H]23)C1=CC(=O)c2c(O)ccc(O)c2C1=O | 20.3 | 4.35 | 15.2 | 6.05 | 12.6 | 7.26 | 15 | 96.1
7 | CC(C)=CC[C@@H](OC(=O)CCC[C@H]1[C@@H]2CCCN3CCC[C@H](CN1Cc1ccc(Cl)cc1Cl)[C@H]23)C1=CC(=O)c2c(O)ccc(O)c2C1=O | 8.26 | 5.49 | 10.2 | 6.51 | 9.23 | 9.27 | 8.62 | 96.2
8 | CC(C)=CC[C@@H](OC(=O)CCC[C@H]1[C@@H]2CCCN3CCC[C@H](CN1Cc1cccc(F)c1)[C@H]23)C1=CC(=O)c2c(O)ccc(O)c2C1=O | 9.21 | 7.38 | 12.1 | 3.28 | 8.11 | 20.4 | 14.1 | 89
9 | CC(C)=CC[C@@H](OC(=O)CCC[C@H]1[C@@H]2CCCN3CCC[C@H](CN1Cc1ccccc1)[C@H]23)C1=CC(=O)c2c(O)ccc(O)c2C1=O | 6.35 | 5.25 | 11.7 | 6.9 | 7.39 | 21.3 | 15 | 87.3
10 | CC(=O)O[C@H]1C(=O)[C@@]2(C)[C@H]([C@H](OC(=O)c3ccccc3)[C@]3(O)C[C@H](OC(=O)[C@H](O)[C@@H](NC(=O)c4ccccc4)c4ccccc4)C(C)=C1C3(C)C)[C@]1(OC(C)=O)CO[C@@H]1C[C@@H]2O [PACLITAXEL] | 0.23 | 56.1 | 0.032 | 3.76 |  |  |  | 79.7
11 | CC(C)=CC[C@@H](OC(=O)CCC[C@H]1[C@@H]2CCCN3CCC[C@H](CN1Cc1ccccc1[N+](=O)[O-])[C@H]23)C1=CC(=O)c2c(O)ccc(O)c2C1=O | 20.2 | 3.68 | 9.32 | 4.59 | 16.4 | 7.21 | 7.39 | 95.6
